According to patent US7932262B2 (Novartis AG, priority 2006, dated 2011):

The compounds below were run against T1, PDK1 kinase (Homo sapiens, UniProt O15530) (assay: PDK1 Kinase Alpha Screen Assay). Conditions: PDK1 Kinase Alpha Screen Assay; read-out: PDK1 IC50.
T1 sequence (O15530 1-556): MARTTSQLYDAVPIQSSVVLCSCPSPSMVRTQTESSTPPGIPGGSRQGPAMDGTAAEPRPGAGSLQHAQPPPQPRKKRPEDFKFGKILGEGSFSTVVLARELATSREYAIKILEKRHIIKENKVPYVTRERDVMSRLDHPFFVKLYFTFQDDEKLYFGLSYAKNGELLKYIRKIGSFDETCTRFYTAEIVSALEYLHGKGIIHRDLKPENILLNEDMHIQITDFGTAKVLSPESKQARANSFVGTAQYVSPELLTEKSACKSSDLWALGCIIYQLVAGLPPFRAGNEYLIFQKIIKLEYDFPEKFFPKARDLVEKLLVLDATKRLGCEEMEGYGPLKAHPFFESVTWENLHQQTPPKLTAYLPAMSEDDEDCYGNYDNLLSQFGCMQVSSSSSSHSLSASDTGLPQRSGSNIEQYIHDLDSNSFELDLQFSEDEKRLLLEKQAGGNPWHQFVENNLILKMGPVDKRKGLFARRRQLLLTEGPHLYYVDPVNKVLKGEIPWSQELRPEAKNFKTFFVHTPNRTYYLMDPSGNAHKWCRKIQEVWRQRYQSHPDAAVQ
Type: biochemical
Experimental: 1. PDK1 Kinase Alpha Screen Assay
Reagents/Concentrations: The PDK1-4 peptide substrate, biotin-[…]-NH2, was purchased from the Tufts University Core Facility. The final concentration of PDK1-4 peptide substrate was 50 nM The ATP substrate (Adenosine-5′-triphosphate) was purchased from Roche Diagnostics. The final concentration of ATP substrate was 10 uM. Phospho-(Ser/Thr) PKA substrate antibody was purchased from Cell Signaling Technology. The final concentration of antibody was 0.3 mg/ml. The Alpha Screen Protein A detection kit containing donor and acceptor beads was purchased from PerkinElmer Life Sciences. The final concentration of both donor and acceptor beads was 25 μg/ml. Alpha Screen was used for detection. The biotinylated-PDK1-4 peptide was phosphorylated by PDK1 kinase using the ATP substrate. The biotinylated-PDK1-4 peptide substrate was bound to the streptavidin coated donor bead. The antibody was bound to the protein A coated acceptor bead. The antibody bound to the phosphorylated form of the biotinylated PDK-1 peptide substrate, bringing the donor and acceptor beads into close proximity. Laser irradiation of the donor bead at 680 nm generated a flow of short-lived singlet oxygen molecules. When the donor and acceptor beads were in close proximity, the reactive oxygen generated by the irradiation of the donor beads initiated a luminescence/fluorescence cascade in the acceptor beads. This process led to a highly amplified signal with output in the 530-620 nm range. Assays were carried out in 50 mM Tris, pH=7.5, 10 mM MgCl2, 0.1% Bovine Serum Albumin, 0.01% Tween-20, 2 mM Dithiolthreitol, 2.5% Dimethyl Sulfoxide. Reactions were stopped by adding 50 mM Tris, pH=7.5, 90 mM EDTA, 0.1% Bovine Serum Albumin, 0.01% Tween-20.
Procedure: To 10 μl of PDK1-4 peptide, 0.5 μl of test compound in dimethyl sulfoxide is added. PDK1 kinase and ATP are mixed. 10 μl of the PDK1 kinase/ATP mix is added to start the reaction. The reaction is allowed to proceed for 3-18 hours. The reactions are stopped by adding 10 μl of the EDTA-containing stop buffer. Beads are mixed with antibody. 25 μl of the bead/antibody mix is added to the stopped reactions. Plates are incubated at room temperature overnight to allow for detection development before being read. The assay is run is a 384-well format. […]

`COc1ccccc1Oc1cccc2cnc(Nc3ccc(S(N)(=O)=O)cc3)nc12` [Compound 408, 4-(8-(2-methoxyphenoxy)quinazolin-2-ylamino)benzenesulfonamide] and `NC(=O)c1cccc(Oc2cccc3cnc(Nc4ccc(S(N)(=O)=O)cc4)nc23)c1` [Compound 411, 3-(2-(4-sulfamoylphenylamino)quinazolin-8-yloxy)benzamide] cannot be ordered by IC50: less than 5 µM for the first, less than 5 µM for the second.

`NS(=O)(=O)c1ccc(Nc2ncc3cccc(Oc4ccnc(F)c4)c3n2)cc1` [Compound 412, 4-(8-(2-fluoropyridin-4-yloxy)quinazolin-2-ylamino)benzenesulfonamide] and `NS(=O)(=O)c1ccc(Nc2ncc3ccc(Oc4ccnc(F)c4)cc3n2)cc1` [Compound 416, 4-(7-(2-fluoropyridin-4-yloxy)quinazolin-2-ylamino)benzenesulfonamide] cannot be ordered by IC50: less than 5 µM for the first, less than 5 µM for the second.

Same assay, conditions: read-out: PDK1 IC50

`CCCCNS(=O)(=O)c1cccc(Nc2ncc3cccc(-c4cccc(NC(C)=O)c4)c3n2)c1` [Compound 87, N-{3-[2-(3-Butylsulfamoyl-phenylamino)-quinazolin-8-yl]-phenyl}-acetamide] and `CC(=O)Nc1cccc(-c2ccc3cnc(Nc4ccc(S(N)(=O)=O)cc4)nc3c2)c1` [Compound 126, N-{3-[2-(4-Sulfamoyl-phenylamino)-quinazolin-7-yl]-phenyl}-acetamide] fall in the same range of IC50: 5 to 10 µM for the first, 5 to 10 µM for the second.

`NC(=O)c1ccccc1-c1ccc2cnc(Nc3ccc(S(N)(=O)=O)cc3)nc2c1` [Compound 125, 2-[2-(4-Sulfamoyl-phenylamino)-quinazolin-7-yl]-benzamide] and `CS(=O)(=O)c1cccc(-c2ccc3cnc(Nc4ccc(S(N)(=O)=O)cc4)nc3c2)c1` [Compound 128, 4-[7-(3-Methanesulfonyl-phenyl)-quinazolin-2-ylamino]-benzenesulfonamlde] cannot be ordered by IC50: less than 5 µM for the first, less than 5 µM for the second.

In the case of `CS(=O)(=O)Nc1cccc(-c2ccc3cnc(Nc4ccc(S(N)(=O)=O)cc4)nc3c2)c1` [Compound 129, 4-[7-(3-Methanesulfonylamino-phenyl)-quinazolin-2-ylamino]-benzenesulfonamide], the IC50 is reported as 10 to 25 µM.

What follows are compounds tested on PC-3 cells (assay: Cell Proliferation Assay (Cell Titer Glo), PC-3 cell line). Conditions: Homo sapiens, PC-3, Cell Proliferation Assay, PC3; read-out: CPEC50 PC3.
Type: cell-based
Experimental: IV. Cell Proliferation Assay Protocol:
A2780, PC-3, or PC3MM cells were seeded at 1000 cells/well in 100 μL/well (10.000 cells/mL) growth media in 96-well plates. Cells were allowed to adhere to the bottom of plates for 3-5 hours in a 37° C. 5% CO2 incubator. Compounds were dissolved in DMSO and then transferred to the cell plates. The cells were incubated with the compounds for 3 days in a 37° C. 5% CO2 incubator. The growth medium containing the compounds was then removed from the cells and fresh medium was added, followed by 100 μL of Cell Titer Glo assay reagent (Promega). This mixture was shaken for 1 minute and then incubated without shaking for 10 minutes. Activity determinations for the compounds were made by detection on a Trilux Instrument.
V. Cell Proliferation Assay Protocol: PC-3 Cell Line
PC-3 cells were seeded at 1000 cells/well in 100 μL/well (10.000 cells/mL) along with growth media into black-walled, clear bottom 96-well plates. The cells were allowed to adhere to the bottom of the plate for 3-5 hours in a 37° C. 5% CO2 incubator.
Test compounds were diluted to 500× in DMSO. The DMSO solutions of six of the compounds were transferred to the cells in the 96 well round bottom plate, column 2, row B-F. A 1:3 serial dilution of each compound was carried out. The serial dilution comprised adding 20 μL of DMSO to the wells containing the compounds and doing a 1:3 dilution across the plate from columns 2-10. Column 11 contained only DMSO. The serial dilution was carried out using a BioMek 2000 protocol “CP Serial Dilution using 250 μL tips” or “Proliferation Compound” (if using 20 μL tips).
To a 96 deep well block, columns 2-11 rows B-F, was transferred 500 μL of growth medium. Using the FX protocol “HH_CellAssay—2 μL to 500 μL”, 2 μL of compound from each cell of the compound plate was transferred to the corresponding cell in the 96 deep well block containing 500 μL of growth medium. The instrument was programmed to dilute the compound in growth medium and then transfer 100 μL of that mixture to cell plates containing cells. The cell plates, to which test compounds had been added, were incubated for 3 days at 37° C. Following the incubation, the medium was removed and replaced with fresh medium. Cell Titer Glo (100 μL) was added to each well and the plate was shaken for 1 minute and then incubated without shaking for 10 minutes. The plates were then read using a Trilux instrument.

`COc1cc(C(=O)NC2CCN(C)CC2)ccc1Nc1ncc2c(Br)ccc(OC3CCNCC3)c2n1` [Compound 371, 4-(5-bromo-8-(piperidin-4-yloxy)quinazolin-2-ylamino)-3-methoxy-N-(1-methylpiperidinyl)benzamide] and `O=C(NC1CCNCC1)c1ccc(Nc2ncc3c(Br)ccc(OC4CCNCC4)c3n2)cc1` [Compound 370, 4-(5-bromo-8-(piperidin-4-yloxy)quinazolin-2-ylamino)-N-(piperidin-4-yl)benzamide] fall in the same range of EC50: 5 to 10 µM for the first, 5 to 10 µM for the second.

`Cc1ccc(OC2CCNCC2)c2nc(Nc3ccc(N4CCNCC4)cc3)ncc12` [Compound 374, 5-methyl-N-(4-(piperazin-1-yl)phenyl)-8-(piperidin-4-yloxy)quinazolin-2-amine] and `Cc1ccc(OC2CCNCC2)c2nc(Nc3ccc(C(=O)NC4CCNCC4)cc3)ncc12` [Compound 376, 4-(5-methyl-8-(piperidin-4-yloxy)quinazolin-2-ylamino)-N-(piperidin-4-yl)benzamide] fall in the same range of EC50: 5 to 10 µM for the first, 5 to 10 µM for the second.

`CC(C)NC(=O)c1ccc(Nc2ncc3ccc(Oc4ccccc4)cc3n2)cc1` [Compound 591, N-isopropyl-4-(7-phenoxyquinazolin-2-ylamino)benzamide] and `CC(C)N1CCC(Oc2ccc3cnc(Nc4nc5ccccc5s4)nc3c2)CC1` [Compound 324, N-(7-(1-isopropylpiperidin-4-yloxy)quinazolin-2-yl)benzo[d]thiazol-2-amine] cannot be ordered by EC50: less than 5 µM for the first, less than 5 µM for the second.

For `CNc1ncc2ccc(O)c(C3CCN(C(C)C)CC3)c2n1` [Compound 323, 8-(1-isopropylpiperidin-4-yl)-2-(methylamino)quinazolin-7-ol], the EC50 was 5 to 10 µM.

Same assay, conditions: Homo sapiens, PC-3, PC3 cells; read-out: CPEC50 PC3

`CC(C)N1CCC(Oc2cccc3cnc(Nc4ccc(CC(N)=O)cc4)nc23)CC1` [Compound 970, 2-(4-(8-(1-isopropylpiperidin-4-yloxy)quinazolin-2-ylamino)phenyl)acetamide] and `CNC(=O)Cc1ccc(Nc2ncc3cccc(OC4CCN(C(C)C)CC4)c3n2)cc1` [Compound 966, 2-(4-(8-(1-isopropylpiperidin-4-yloxy)quinazolin-2-ylamino)phenyl)-N-methylacetamide] cannot be ordered by EC50: less than 5 µM for the first, less than 5 µM for the second.

`Nc1cc(C(F)(F)F)c(-c2ccc3cnc(Nc4ccc(S(N)(=O)=O)cc4)nc3c2OC2CCNCC2)cn1` [Compound 934, 4-(7-(6-amino-4-(trifluoromethyl)pyridin-3-yl)-8-(piperidin-4-yloxy)quinazolin-2-ylamino)benzenesulfonamide] and `C#Cc1cc(OC2CCN(C(C)C)CC2)c2nc(Nc3ccc(S(N)(=O)=O)cc3)ncc2c1` [Compound 1015, 4-(6-ethynyl-8-(1-isopropylpiperidin-4-yloxy)quinazolin-2-ylamino)benzenesulfonamide] cannot be ordered by EC50: less than 5 µM for the first, less than 5 µM for the second.

Compared with `CC(C)NC(=O)Cc1ccc(Nc2ncc3cccc(OC4CCN(C(C)C)CC4)c3n2)cc1` [Compound 967, N-isopropyl-2-(4-(8-(1-isopropylpiperidin-4-yloxy)quinazolin-2-ylamino)phenyl)acetamide], `CC(C)N1CCC(Oc2cccc3cnc(Nc4ccc(F)cc4)nc23)CC1` [Compound 1009, N-(4-fluorophenyl)-8-(1-isopropylpiperidin-4-yloxy)quinazolin-2-amine] is higher in EC50: less than 5 µM for the first, 5 to 10 µM for the second. The first is the more potent here.

`CCN1CCC(Oc2ccc3cnc(Nc4cc(OC)cc(OC)c4)nc3c2)CC1` [Compound 958, N-(3,5-dimethoxyphenyl)-7-(1-ethylpiperidin-4-yloxy)quinazolin-2-amine] and `CC(C)N1CCC(Oc2cccc3cnc(Nc4ccc(N5CCOCC5)cc4)nc23)CC1` [Compound 968, 8-(1-isopropylpiperidin-4-yloxy)-N-(4-morpholinophenyl)quinazolin-2-amine] cannot be ordered by EC50: less than 5 µM for the first, less than 5 µM for the second.

Work on `CC(C)N1CCC(Oc2cccc3cnc(Nc4ccc(NC(=O)N5CCCC5)cc4)nc23)CC1` [Compound 992, N-(4-(8-(1-isopropylpiperidin-4-yloxy)quinazolin-2-ylamino)phenyl)pyrrolidine-1-carboxamide] yielded an EC50 of less than 5 µM.
